The structures appear in SMILES notation.

These results are taken from article PMC4554294 (Biochemistry and Biophysics Reports, 2015).

Test in all cases: saturation transfer difference
Format in all cases: binding

The target in experiment [1] is T1, sucrose phosphorylase (LmSPase) (Leuconostoc mesenteroides, UniProt Q59495, F52A/D295A).
T1 sequence (Q59495 1-490 F52A/D295A): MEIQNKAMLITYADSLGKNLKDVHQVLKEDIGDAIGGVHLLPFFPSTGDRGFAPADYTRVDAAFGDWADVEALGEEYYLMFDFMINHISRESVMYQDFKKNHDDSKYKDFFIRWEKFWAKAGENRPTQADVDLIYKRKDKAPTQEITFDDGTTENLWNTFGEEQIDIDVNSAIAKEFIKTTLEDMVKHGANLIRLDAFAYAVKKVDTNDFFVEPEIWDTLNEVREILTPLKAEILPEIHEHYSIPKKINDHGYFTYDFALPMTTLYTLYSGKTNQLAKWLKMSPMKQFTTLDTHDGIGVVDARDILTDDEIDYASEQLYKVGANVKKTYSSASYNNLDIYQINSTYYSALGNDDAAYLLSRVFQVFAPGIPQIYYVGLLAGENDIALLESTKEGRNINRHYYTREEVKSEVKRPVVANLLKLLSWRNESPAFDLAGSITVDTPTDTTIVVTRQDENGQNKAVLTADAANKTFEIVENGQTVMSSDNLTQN

Experiment [2] addresses T2, sucrose phosphorylase (LmSPase) (Leuconostoc mesenteroides, UniProt Q59495, F52A/E237A).
T2 sequence (Q59495 1-490 F52A/E237A): T1 sequence (Q59495 1-490 F52A/D295A)

In experiment [3] the target is T3, sucrose phosphorylase (LmSPase) (Leuconostoc mesenteroides, UniProt Q59495, F52A).
T3 sequence (Q59495 1-490 F52A): T1 sequence (Q59495 1-490 F52A/D295A)

The target in experiment [4] is T4, sucrose phosphorylase (LmSPase) (Leuconostoc mesenteroides, UniProt Q59495, F52A/D196A).
T4 sequence (Q59495 1-490 F52A/D196A): T1 sequence (Q59495 1-490 F52A/D295A)

The target in experiment [5] is T5, sucrose phosphorylase (LmSPase) (Leuconostoc mesenteroides, UniProt Q59495).
T5 sequence (Q59495 1-490): T1 sequence (Q59495 1-490 F52A/D295A)

As to `O=P(O)(O)O[C@H]1O[C@H](CO)[C@@H](O)[C@H](O)[C@H]1O` [αGlc 1-P, α-D-glucose 1-phosphate], the “saturation transfer difference (STD) NMR; steady-state kinetics” value in experiment [1] is listed as “STD signal intensities were higher on binding of αGlc 1-P to F52A_D295A mutant as compared to wild-type”. Also, the results for the “saturation transfer difference (STD) NMR” value in experiment [2], in experiment [3] and in experiment [4] were “suggesting that binding of αGlc 1-P did take place in each double mutant”, “STD effects in αGlc 1-P were considerably weaker in F52A mutant than in wild-type enzyme” and “Incubation of either double mutant with αGlc 1-P gave rise to distinct STD effects in the ligand”, respectively. The “saturation transfer difference (STD) NMR, 7 μM enzyme, 5.0 mM ligand” value in experiment [5] is “Binding of αGlc 1-P to LmSPase resulted in a characteristic pattern of STD effects”.
